{
  "source": "patent EP2951180B1",
  "about": "“2,6,7,8 SUBSTITUTED PURINES AS HDM2 INHIBITORS” (Merck Sharp & Dohme Corp., priority 2013, dated 2014)",
  "data": [
    {"target": "T1, HDM2 (Homo sapiens, UniProt Q00987)", "T1 construct": "Thioredoxin (N); made in house; host or cells: E. coli strain BL21(DE3)Rosetta", "T1 sequence (Q00987 17-125)": "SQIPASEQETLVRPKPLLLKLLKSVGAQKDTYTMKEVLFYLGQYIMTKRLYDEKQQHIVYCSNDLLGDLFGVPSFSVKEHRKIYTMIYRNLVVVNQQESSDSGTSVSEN", "assay": "HDM2 FRET assay (inhibition of binding of FITC labeled p53-pocket peptide to HDM2)", "conditions": "0.5 nM HDM2 (residues 17 to 125), 3nM peptide, two hour incubation at room temperature; read-out: FRET IC50", "procedure,_shortened": "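Displacement of FITC-p53 peptide (3 nM) from His-tagged HDM2 (0.5 nM) is measured by Tb-to-fluorescein FRET in PBS, 0.01% BSA, 0.01% Tween-20. IC50 values derive from 10-point curves.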", "units": {"IC50": "nM"}, "values": [
      {"smiles": "C[C@H]1CC[C@H](Cn2c(N3CCO[C@H]4CCC[C@@H]43)nc3nc(-c4n[nH]c(=O)o4)nc(-c4cccc(Cl)c4)c32)CC1", "note": "[Example 16.83, 5-{6-(3-chlorophenyl)-8-[(4aS,7aS)-hexahydrocyclopenta [b][1,4]oxazin-4(4aH)-yl]-7-[(trans-4-methylcyclohexyl)methyl]-7H-purin-2-yl}-1,3,4-oxadiazol-2(3H)-one]", "IC50": 186},
      {"smiles": "C[C@H]1CC[C@H](Cn2c(N3CCO[C@@H]4CCC[C@H]43)nc3nc(-c4n[nH]c(=O)o4)nc(-c4cccc(Cl)c4)c32)CC1", "note": "[Example 16.84, 5-{6-(3-chlorophenyl)-8-[(4aR,7aR)-hexahydrocyclopenta [b][1,4]oxazin-4(4aH)-yl]-7-[(trans-4-methylcyclohexyl)methyl]-7H-purin-2-yl}-1,3,4-oxadiazol-2(3H)-one]", "IC50": 2.47},
      {"smiles": "COC[C@H](Nc1nc2nc(-c3noc(=O)[nH]3)nc(-c3cccc(Cl)c3)c2n1C[C@H]1CC[C@H](C)CC1)c1ccccc1", "note": "[Example 16.85, 3-{6-(3-chlorophenyl)-8-{[(1R)-2-methoxy-1-phenylethyl]amino}-7-[(trans-4-methylcyclohexyl)methyl]-7H-purin-2-yl}-1,2,4-oxadiazol-5(4H)-one]", "IC50": 2.87},
      {"smiles": "C[C@H]1CC[C@H](Cn2c(N3CCO[C@H]4CCC[C@@H]43)nc3nc(-c4noc(=O)[nH]4)nc(-c4cncc(Cl)c4)c32)CC1", "note": "[Example 16.86, 3-{6-(5-chloropyridin-3-yl)-8-[(4aS,7aS)-hexahydrocyclopenta [b][1,4]oxazin-4(4aH)-yl]-7-[(trans-4-methylcyclohexyl)methyl]-7H-purin-2-yl}-1,2,4-oxadiazol-5(4H)-one]", "IC50": 344},
      {"smiles": "C[C@H]1CC[C@H](Cn2c(N3CCO[C@@H]4CCC[C@H]43)nc3nc(-c4noc(=O)[nH]4)nc(-c4cncc(Cl)c4)c32)CC1", "note": "[Example 16.87, 3-{6-(5-chloropyridin-3-yl)-8-[(4aR,7aR)-hexahydrocyclopenta [b][1,4]oxazin-4(4aH)-yl]-7-[(trans-4-methylcyclohexyl)met52hyl]-7H-purin-2-yl}-1,2,4-oxadiazol-5(4H)-one]", "IC50": 1.56},
      {"smiles": "C[C@H]1CC[C@H](Cn2c(N3CCOCC34CC4)nc3nc(-c4n[nH]c(=O)o4)nc(-c4cccc(Cl)c4)c32)CC1", "note": "[Example 16.88, 5-[6-(3-chlorophenyl)-7-[(trans-4-methylcyclohexyl)methyl]-8-(7-oxa-4-azaspiro[2.5]oct-4-yl)-7H-purin-2-yl]-1,3,4-oxadiazol-2(3H)-one]", "IC50": 39.1},
      {"smiles": "C[C@H]1CC[C@H](Cn2c(N3CCOCC34CCC4)nc3nc(-c4n[nH]c(=O)o4)nc(-c4cccc(Cl)c4)c32)CC1", "note": "[Example 16.89, 5-[6-(3-chlorophenyl)-7-[(trans-4-methylcyclohexyl)methyl]-8-(8-oxa-5-azaspiro[3.5]non-5-yl)-7H-purin-2-yl]-1,3,4-oxadiazol-2(3H)-one]", "IC50": 25},
      {"smiles": "C[C@H]1CC[C@H](Cn2c(N3CCO[C@@H]4CCC[C@H]43)nc3nc(-c4n[nH]c(=O)o4)nc(-c4cncc(Cl)c4)c32)CC1", "note": "[Example 16.90, 5-{6-(5-chloropyridin-3-yl)-8-[(4aR,7aR)-hexahydrocyclopenta [b][1,4]oxazin-4(4aH)-yl]-7-[(trans-4-methylcyclohexyl)methyl]-7H-purin-2-yl}-1,3,4-oxadiazol-2(3H)-one]", "IC50": 2.28},
      {"smiles": "C[C@H]1CC[C@H](Cn2c(N3CCO[C@H]4CCC[C@@H]43)nc3nc(-c4n[nH]c(=O)o4)nc(-c4cncc(Cl)c4)c32)CC1", "note": "[Example 16.91, 5-{6-(5-chloropyridin-3-yl)-8-[(4aS,7aS)-hexahydrocyclopenta [b][1,4]oxazin-4(4aH)-yl]-7-[(trans-4-methylcyclohexyl)methyl]-7H-purin-2-yl}-1,3,4-oxadiazol-2(3H)-one]", "IC50": 403},
      {"smiles": "C[C@H]1CC[C@H](Cn2c(N3CCOC[C@H]3c3ccccc3F)nc3nc(-c4noc(=O)[nH]4)nc(-c4cncc(Cl)c4)c32)CC1", "note": "[Example 16.92, 3-{6-(5-chloropyridin-3-yl)-8-[(3R)-3-(2-fluorophenyl)morpholin-4-yl]-7-[(trans-4-methylcyclohexyl)methyl]-7H-purin-2-yl}-1,2,4-oxadiazol-5(4H)-one]", "IC50": 0.585},
      {"smiles": "C[C@H]1CC[C@H](Cn2c(N3CCOC[C@H]3c3ccc(F)cc3)nc3nc(-c4noc(=O)[nH]4)nc(-c4cncc(Cl)c4)c32)CC1", "note": "[Example 16.93, 3-{6-(5-chloropyridin-3-yl)-8-[(3R)-3-(4-fluorophenyl)morpholin-4-yl]-7-[(trans-4-methylcyclohexyl)methyl]-7H-purin-2-yl}-1,2,4-oxadiazol-5(4H)-one]", "IC50": 1.37},
      {"smiles": "C[C@H]1CC[C@H](Cn2c(N3CCOC[C@H]3c3ccc(F)cc3)nc3nc(-c4n[nH]c(=O)o4)nc(-c4cncc(Cl)c4)c32)CC1", "note": "[Example 16.94, 5-{6-(5-chloropyridin-3-yl)-8-[(3R)-3-(4-fluorophenyl)morpholin-4-yl]-7-[(trans-4-methylcyclohexyl)methyl]-7H-purin-2-yl}-1,3,4-oxadiazol-2(3H)-one]", "IC50": 1.98},
      {"smiles": "C[C@H]1CC[C@H](Cn2c(N3CCOC[C@H]3c3ccccc3F)nc3nc(-c4n[nH]c(=O)o4)nc(-c4cncc(Cl)c4)c32)CC1", "note": "[Example 16.95, 5-{6-(5-chloropyridin-3-yl)-8-[(3R)-3-(2-fluorophenyl)morpholin-4-yl]-7-[(trans-4-methylcyclohexyl)methyl]-7H-purin-2-yl}-1,3,4-oxadiazol-2(3H)-one]", "IC50": 0.494},
      {"smiles": "C[C@H]1CC[C@H](Cn2c(N3CCOC[C@H]3c3ccncc3)nc3nc(-c4noc(=O)[nH]4)nc(-c4cccc(Cl)c4)c32)CC1", "note": "[Example 16.96, 3-{6-(3-chlorophenyl)-7-[(trans-4-methylcyclohexyl)methyl]-8-[(3R)-3-pyridin-4-ylmorpholin-4-yl]-7H-purin-2-yl}-1,2,4-oxadiazol-5(4H)-one]", "IC50": 3.29},
      {"smiles": "C[C@H]1CC[C@H](Cn2c(N3CCOC[C@H]3c3ccncc3)nc3nc(-c4n[nH]c(=O)o4)nc(-c4cccc(Cl)c4)c32)CC1", "note": "[Example 16.97, 5-{6-(3-chlorophenyl)-7-[(trans-4-methylcyclohexyl)methyl]-8-[(3R)-3-pyridin-4-ylmorpholin-4-yl]-7H-purin-2-yl}-1,3,4-oxadiazol-2(3H)-one]", "IC50": 3.81},
      {"smiles": "C[C@H]1CC[C@H](Cn2c(N3CCOC[C@H]3c3ccccn3)nc3nc(-c4noc(=O)[nH]4)nc(-c4cccc(Cl)c4)c32)CC1", "note": "[Example 16.98, 3-{6-(3-chlorophenyl)-7-[(trans-4-methylcyclohexyl)methyl]-8-[(3R)-3-pyridin-2-ylmorpholin-4-yl]-7H-purin-2-yl}-1,2,4-oxadiazol-5(4H)-one]", "IC50": 1.61},
      {"smiles": "C[C@H]1CC[C@H](Cn2c(N3CCOC[C@H]3c3ccccn3)nc3nc(-c4n[nH]c(=O)o4)nc(-c4cccc(Cl)c4)c32)CC1", "note": "[Example 16.99, 5-{6-(3-chlorophenyl)-7-[(trans-4-methylcyclohexyl)methyl]-8-[(3R)-3-pyridin-2-ylmorpholin-4-yl]-7H-purin-2-yl}-1,3,4-oxadiazol-2(3H)-one]", "IC50": 1.98},
      {"smiles": "C[C@@H]1OCCN(c2nc3nc(-c4n[nH]c(=O)o4)nc(-c4cncc(Cl)c4)c3n2C[C@H]2CC[C@H](C)CC2)[C@@H]1C", "note": "[Example 16.103, 5-{6-(5-chloropyridin-3-yl)-8-[(2S,3R)-2,3-dimethylmorpholin-4-yl]-7-[(trans-4-methylcyclohexyl)methyl]-7H-purin-2-yl}-1,3,4-oxadiazol-2(3H)-one]", "IC50": 140},
      {"smiles": "C[C@H]1CC[C@H](Cn2c(N3CCC[C@H]3CF)nc3nc(-c4n[nH]c(=O)o4)nc(-c4cncc(Cl)c4)c32)CC1", "note": "[Example 16.104, 5-{6-(5-chloropyridin-3-yl)-8-[(2S)-2-(fluoromethyl)pyrrolidin-1-yl]-7-[(trans-4-methylcyclohexyl)methyl]-7H-purin-2-yl}-1,3,4-oxadiazol-2(3H)-one]", "IC50": 3.91},
      {"smiles": "C[C@@H]1COC[C@@H](C)N1c1nc2nc(-c3n[nH]c(=O)o3)nc(-c3cncc(Cl)c3)c2n1C[C@H]1CC[C@H](C)CC1", "note": "[Example 16.105, 5-{6-(5-chloropyridin-3-yl)-8-[(3R,5R)-3,5-dimethylmorpholin-4-yl]-7-[(trans-4-methylcyclohexyl)methyl]-7H-purin-2-yl}-1,3,4-oxadiazol-2(3H)-one]", "IC50": 11},
      {"smiles": "C[C@H]1CC[C@H](Cn2c(N3CCC[C@H]3C(F)(F)F)nc3nc(-c4n[nH]c(=O)o4)nc(-c4cncc(Cl)c4)c32)CC1", "note": "[Example 16.106, 5-{6-(5-chloropyridin-3-yl)-7-[(trans-4-methylcyclohexyl)methyl]-8-[(2S)-2-(trifluoromethyl)pyrrolidin-1-yl]-7H-purin-2-yl} -1,3,4-oxadiazol-2(3H)-one]", "IC50": 0.825},
      {"smiles": "C[C@H]1CC[C@H](Cn2c(N3CCOC[C@H]3c3ccccc3)nc3nc(-c4noc(=O)[nH]4)nc(-c4cc(Cl)nc(Cl)c4)c32)CC1", "note": "[Example 16.107, 3-{6-(2,6-dichloropyridin-4-yl)-7-[(trans-4-methylcyclohexyl)methyl]-8-[(3R)-3-phenylmorpholin-4-yl]-7H-purin-2-yl}-1,2,4-oxadiazol-5(4H)-one]", "IC50": 1.66},
      {"smiles": "C[C@H]1CC[C@H](Cn2c(N3CCOC[C@H]3c3ccccc3)nc3nc(-c4noc(=O)[nH]4)nc(-c4cc(Cl)cnc4F)c32)CC1", "note": "[Example 16.108, 3-{6-(5-chloro-2-fluoropyridin-3-yl)-7-[(trans-4-methylcyclohexyl)methyl]-8-[(3R)-3-phenylmorpholin-4-yl]-7H-purin-2-yl}-1,2,4-oxadiazol-5(4H)-one]", "IC50": 1.16},
      {"smiles": "COc1cc(-c2nc(-c3noc(=O)[nH]3)nc3nc(N4CCOC[C@H]4c4ccccc4)n(C[C@H]4CC[C@H](C)CC4)c23)cc(Cl)n1", "note": "[Example 16.109, 3-{6-(2-chloro-6-methoxypyridin-4-yl)-7-[(trans-4-methylcyclohexyl)methyl]-8-[(3R)-3-phenylmorpholin-4-yl]-7H-purin-2-yl}-1,2,4-oxadiazol-5(4H)-one]", "IC50": 1.21}
    ]}
  ]
}
